Source: patent EP3797781A1, “USE OF EC-7072 AND SYNERGIC COMPOSITIONS THEREOF IN TREATMENT OF CHRONIC LYMPHOCYTIC LEUKEMIA” (priority 2019, dated 2021)

Test system: isolated leukemia cells from patients with CLL
Assay: qPCR analysis of gene expression in isolated leukemia cells
Format: cell-based, human
Conditions: 6 hours
Description: Isolated leukemia cells from patients with CLL were incubated with EC-7072 (200 nM) or DMSO for 6 hours. Total RNA was extracted using RNeasy Mini Kit (Qiagen). 2 µg total RNA were used for cDNA synthesis using High-Capacity cDNA Reverse Transcription Kit (Applied Biosystems). Quantitative RT-PCR was performed using SYBR Green PCR Master Mix (Applied Biosystems) in a 7300 Real-Time PCR System and each sample was analyzed in triplicate. Table 1. Primers used in qPCR
Expression of BCR-related genes was analyzed by qPCR in isolated CLL leukemia cells (n = 6) exposed to 200 nM EC-7072 for 6 hours (Figure 6A).
Expression of relevant genes that regulate apoptosis in CLL was analyzed by qPCR in isolated leukemia cells from patients with CLL (n = 6) exposed to 200 nM EC-7072 for 6 hours, to obtain the mean relative expression to the control (DMSO) control condition (Figure 6D).
The dysregulation of BCL2 expression in primary CLL by EC-7072 was evaluated by: • (i) incubating isolated CLL cells (n = 6) from patients with CLL following treatment with EC-7072 (200 nM) for 6 hours and extracting total RNA. Relative expression of BLC2 was determined by qPCR to obtain the mean relative expression to the control (DMSO) condition (Figure 6F); • (ii) incubating isolated CLL cells (n = 6) following treatment with 200 nM EC-7072 for 12 and 18 hours. BCL2 levels were evaluated by intracellular flow cytometry (Figure 6G); • (iii) incubating isolated T cells (n = 3) from patients with CLL following treatment with EC-7072 (200 nM) for 6 hours and extracting total RNA. Relative expression of BLC2 was determined by qPCR to obtain the mean relative expression to the control (DMSO) condition (Figure 6H); • (iv) incubating PBMCs (Figure 6I) and isolated T cells (Figure 6J) from patients with CLL (n = 3) following treatment with 200 nM EC-7072 for 24 hours. T-cell death and apoptosis were assessed by DiOC6(3)/PI staining to obtain percentages of viable [DiOC6(3)^+] cells and the mean percentages of apoptotic [DiOC6(3)^low PI^-] and dead [PI^+] cells. […]

CO[C@@H]([C@@H]1Cc2cc3cc(O[C@H]4C[C@@H](O[C@H]5C[C@@H](O)[C@H](O)[C@@H](C)O5)[C@H](O)[C@@H](C)O4)c(C)c(O)c3c(O)c2C(=O)[C@H]1O[C@H]1C[C@@H](O[C@H]2C[C@@H](O[C@H]3C[C@](C)(O)[C@H](O)[C@@H](C)O3)[C@@H](O)[C@@H](C)O2)[C@H](O)[C@@H](C)O1)[C@@H](O)C(C)=O [EC-7072, mithramycin SK]
expression of genes required for functional BCR signaling (CD79B, SYK, LYN, PIK3CD, PLCG2, CARD11) (200 nM, RNA-seq, validated by qPCR (n = 6)): broad downregulation | gene expression of BCL2 (200 nM, isolated CLL cells (n = 6)): significantly downregulated | expression of BCL2 upon BCR activation (EC-7072 200 nM in combination with α-IgM (10 µg/mL), n = 4): restore the expression of BCL2 to basal levels
